Assay results as given in PubChem BioAssay (NCI).
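Where inhibition never reached the appropriate level, the endpoint shown equals the highest concentration tested. Otherwise, values were interpolated linearly from a five-concentration, 48-hour dose response in 96-well plates. TGI is the concentration that stops growth completely.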

Experiments:
Test in all cases: DTP human tumour cell line panel, 48 h
[1] = tested on: 786-0 renal
[2] = tested on: A498 renal
[3] = tested on: A549 NSCLC
[4] = tested on: ACHN renal
[5] = tested on: CAKI-1 renal
[6] = tested on: CCRF-CEM leukemia
[7] = tested on: COLO 205 colon
[8] = tested on: DLD-1 colon
[9] = tested on: DMS 114 small cell lung
[10] = tested on: EKVX NSCLC
[11] = tested on: HCC-2998 colon
[12] = tested on: HCT-116 colon
[13] = tested on: HL-60(TB) leukemia
[14] = tested on: HOP-62 NSCLC
[15] = tested on: HOP-92 NSCLC
[16] = tested on: HT29 colon
[17] = tested on: IGROV1 ovarian
[18] = tested on: K-562 leukemia
[19] = tested on: KM20L2 colon
[20] = tested on: LOX IMVI melanoma
[21] = tested on: LXFL 529 NSCLC
[22] = tested on: M14 melanoma
[23] = tested on: M19-MEL melanoma
[24] = tested on: MALME-3M melanoma
[25] = tested on: NCI-H226 lung
[26] = tested on: NCI-H23 lung
[27] = tested on: NCI-H522 lung
[28] = tested on: OVCAR-3 ovarian
[29] = tested on: OVCAR-4 ovarian
[30] = tested on: OVCAR-5 ovarian
[31] = tested on: OVCAR-8 ovarian
[32] = tested on: RPMI-8226 leukemia
[33] = tested on: RXF 393 renal
[34] = tested on: SF-268 CNS
[35] = tested on: SF-295 CNS
[36] = tested on: SF-539 CNS
[37] = tested on: SK-MEL-2 melanoma
[38] = tested on: SK-MEL-28 melanoma
[39] = tested on: SK-MEL-5 melanoma
[40] = tested on: SK-OV-3 ovarian
[41] = tested on: SN12C renal
[42] = tested on: SNB-19 CNS
[43] = tested on: SNB-75 CNS
[44] = tested on: SW-620 colon
[45] = tested on: TK-10 renal
[46] = tested on: UACC-257 melanoma
[47] = tested on: UACC-62 melanoma
[48] = tested on: XF 498 CNS
[49] = tested on: DMS 273 small cell lung
[50] = tested on: HCT-15 colon
[51] = tested on: KM12 colon
[52] = tested on: MOLT-4 leukemia
[53] = tested on: NCI-H460 lung
[54] = tested on: RXF-631 renal
[55] = tested on: SNB-78 CNS
[56] = tested on: U251 CNS
[57] = tested on: UO-31 renal
[58] = tested on: HOP-18 NSCLC
[59] = tested on: SR leukemia

Measured: TGI

C/C(=N\O)C(CN1CCCCC1)C(c1ccccc1)c1c(O)c2ccccc2oc1=O (centres undefined)
> 10 µM: [6] | [13] | [18]
not listed: [49] | [50] | [51] | [52] | [53] | [54] | [55] | [56] | [57] | [58] | [59]
> 100 µM: all other assays above

CC1(C)C2C/C(=C\c3ccccc3)C(=O)C1C2 (centres undefined)
97.5 µM: [43]
not listed: [19] | [25] | [48] | [58] | [59]
> 100 µM: all other assays above

c1ccc2c3c([nH]c2c1)C1(CCCCC1)c1c([nH]c2ccccc12)C31CCCCC1
95.4 µM: [34]
68.2 µM: [58]
37.1 µM: [12]
85.2 µM: [39]
88.7 µM: [45]
85.6 µM: [11]
48.1 µM: [37]
89.4 µM: [33]
80.1 µM: [24]
26 µM: [29]
61.7 µM: [10]
45.4 µM: [55]
54.8 µM: [14]
49.6 µM: [40]
59 µM: [4] | [49]
97.6 µM: [56]
56.8 µM: [35]
54 µM: [2]
97.1 µM: [25]
64.5 µM: [47]
32.2 µM: [1]
46.6 µM: [15]
36.5 µM: [43]
58.9 µM: [59]
50.4 µM: [31]
not listed: [36] | [54]
> 100 µM: all other assays above
